ChEMBL document CHEMBL5143698, “Phenotypic screen identifies FOXO inhibitor to counteract maturation and promote expansion of human iPS cell-derived cardiomyocytes” (Bioorg Med Chem, 2022)
Activity calls are given as the source filed them. The rule behind the calls is not given here.

Columns and labels:
[1] = (§1) Antiproliferative activity against human iPSC derived cardiomyocytes assessed as increase in cell number by measuring fold change after 3 passages at 100 nM incubated for 2 days by Hoechst staining based analysis; assay type: functional, iPSC-CM; details: time 2 day
iPSC-CM [2] = assay: as §1; assay type: functional; details: time 2.0 day
iPSC-CM [3] = assay: Downregulation of MYL2 gene expression in human iPSC derived cardiomyocytes measured after two passages following incubation for 5 days by qRT PCR analysis; assay type: functional, cell-based; details: dose 3-100 nM, time 5.0 day, DDE = dose-dependent effect
Forkhead box protein O1 = Forkhead box protein O1 (Homo sapiens, UniProt Q12778); assay: Inhibition of FOXO-1 in human HepG2 cells incubated for 20 hrs by Renilla luciferase reporter gene assay; assay type: cell-based
Forkhead box protein O1, sequence (Q12778 whole entry): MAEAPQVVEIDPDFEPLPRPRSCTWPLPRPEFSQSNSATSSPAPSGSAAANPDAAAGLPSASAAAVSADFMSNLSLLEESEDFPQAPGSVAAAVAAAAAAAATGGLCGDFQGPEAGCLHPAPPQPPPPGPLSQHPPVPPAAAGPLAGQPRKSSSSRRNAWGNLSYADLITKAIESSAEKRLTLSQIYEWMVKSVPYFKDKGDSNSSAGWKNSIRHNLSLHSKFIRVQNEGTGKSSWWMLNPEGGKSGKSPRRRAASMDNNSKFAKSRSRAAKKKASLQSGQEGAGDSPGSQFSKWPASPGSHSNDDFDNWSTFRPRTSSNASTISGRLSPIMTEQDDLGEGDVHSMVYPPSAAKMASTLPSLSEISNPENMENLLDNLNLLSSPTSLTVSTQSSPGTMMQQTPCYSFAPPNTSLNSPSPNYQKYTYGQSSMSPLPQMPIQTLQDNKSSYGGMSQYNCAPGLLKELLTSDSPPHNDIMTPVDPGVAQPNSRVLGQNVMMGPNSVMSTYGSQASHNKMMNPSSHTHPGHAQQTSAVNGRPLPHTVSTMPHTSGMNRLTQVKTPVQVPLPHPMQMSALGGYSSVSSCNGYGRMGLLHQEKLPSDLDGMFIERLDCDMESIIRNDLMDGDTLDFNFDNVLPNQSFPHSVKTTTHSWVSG

iPSC-CM [4] = assay: Upregulation of MYH6 gene expression in human iPSC derived cardiomyocytes at 100 nM incubated for 5 days by qRT-PCR analysis; assay type: functional, cell-based; details: time 5.0 day
[5] = Cytotoxicity against human iPSC derived cardiomyocytes at >=500 nM incubated for 4 days without passaging by Hoechst staining based analysis; assay type: toxicity, cell-based; details: ipsc-cm, 96 h, 0.5 µM, time 4 day
iPSC-CM [6] = assay: Upregulation of TBX2 gene expression in human iPSC derived cardiomyocytes at 100 nM incubated for 5 days by qRT-PCR analysis; assay type: functional, cell-based; details: time 5.0 day
iPSC-CM [7] = assay: Downregulation of NPPA gene expression in human iPSC derived cardiomyocytes at 100 nM incubated for 5 days by qRT-PCR analysis; assay type: functional, cell-based; details: time 5.0 day
iPSC-CM [8] = assay: Downregulation of ANP protein level in human iPSC derived cardiomyocytes at 100 nM incubated for 3 weeks by immunofluorescence assay; assay type: functional, cell-based
iPSC-CM [9] = assay: Downregulation of MLC2v protein level in human iPSC derived cardiomyocytes at 100 nM incubated for 3 weeks by immunofluorescence assay; assay type: functional, cell-based
iPSC-CM [10] = assay: Downregulation of NPPA gene expression in human iPSC derived cardiomyocytes measured after two passages following incubation for 5 days by qRT PCR analysis; assay type: functional, cell-based; details: dose 3-100 nM, time 5.0 day, DDE = dose-dependent effect
iPSC-CM [11] = assay: Downregulation of MYH7 gene expression in human iPSC derived cardiomyocytes at 100 nM incubated for 5 days by qRT-PCR analysis; assay type: functional, cell-based; details: time 5.0 day
iPSC-CM [12] = assay: Upregulation of IRX4 gene expression in human iPSC derived cardiomyocytes aat 100 nM incubated for 5 days by qRT-PCR analysis; assay type: functional, cell-based; details: time 5.0 day
iPSC-CM [13] = assay: Downregulation of MYH7 gene expression in human iPSC derived cardiomyocytes measured after two passages following incubation for 5 days by qRT PCR analysis; assay type: functional, cell-based; details: dose 3-100 nM, time 5.0 day, DDE = dose-dependent effect
iPSC-CM [14] = assay: Downregulation of MYL2 gene expression in human iPSC derived cardiomyocytes at 100 nM incubated for 5 days by qRT-PCR analysis; assay type: functional, cell-based; details: time 5.0 day
[15] = Antiproliferative activity against human iPSC derived cardiomyocytes assessed as fold increase in cell number at 100 nM incubated for 4 days without passaging by Hoechst staining based analysis; assay type: functional, iPSC-CM; details: time 4 day

In the case of `CCn1cc(C(=O)O)c(=O)c2c(N)c(F)c(NC3CCCCC3)cc21`, the “fold change (FC)” value [1] is reported as greater than 30, the Activity (iPSC-CM [2]) is reported as “Active” and the Activity (iPSC-CM [3]) is reported as “Dde”. The IC50 (Forkhead box protein O1) was 33 nM, the Activity (iPSC-CM [4]) was “Active” and the Activity [5] was “Toxic”. For the same compound, the Activity (iPSC-CM [6]) was “Active”, the Activity (iPSC-CM [7]) was “Active” and the Activity (iPSC-CM [8]) was “Active”. For the same compound, the Activity (iPSC-CM [9]) was “Active”, the Activity (iPSC-CM [10]) was “Dde” and the Activity (iPSC-CM [11]) was “Active”. The Activity (iPSC-CM [12]) was “Active”, the Activity (iPSC-CM [13]) was “Dde” and the Activity (iPSC-CM [14]) was “Active”. The “fold change (FC)” value [15] was greater than 3.
